From patent publication US10975075B2, “Imidazolonylquinolines and the use thereof as ATM kinase inhibitors” (priority 2015, dated 2021)

Tested on: phosphorylation of CHK2 (phospho-Thr68) in HCT116 cells
Experiment: Cellular pCHK2 assay (bleomycin-induced phosphorylation of CHK2 phospho-Thr68, immunofluorescence high content)
Assay type: cell-based, human
Settings: 10 μM bleomycin, 4 h
Text: For the identification of substances which inhibit the phosphorylation of the protein kinase CHK2 at the amino acid threonine 68, an immunofluorescence-based “high content” analysis assay was used in HCT116 cells.
In vitro cell-based immunofluorescence assay for the identification of inhibitors of bleomycin-induced phosphorylation of CHK2 (phospho-Thr68) in the human colon carcinoma cell line HCT116:
HCT116 cells are sown out in a defined cell density in 384-well plates in culture medium (DMEM high glucose, 2 mM GlutaMax, 1 mM Na pyruvate, 10% FCS) and incubated overnight at 37° C. and 10% of CO2. On the following day, the test substances are added in a defined concentration range (1 nM to 30 μM) in combination with 10 μM bleomycin, where the concentration of the solvent DMSO is kept constant at 0.5%. […] Parallel staining of DNA with propidium iodide enables determination of the cell count. The pCHK2 signal is detected using a high-content imager (Molecular Devices IMX Ultra) and automatic image analysis using the MetaXpress software belonging to the instrument. The number of cell nuclei which have a pCHK2 signal above a defined background is determined.

| Compound | IC50 [nM] |
| --- | --- |
| COc1cc2ncc3c(c2cc1-c1cn[nH]c1)n(-c1ccncc1C)c(=O)n3C [Compound Example 19, 7-Methoxy-3-methyl-1-(3-methylpyridin-4-yl)-8-(1 H-pyrazol-4-yl)-1,3-dihydro-imidazo[4,5-c]quinolin-2-one] | < 200 |
| COc1cc2ncc3c(c2cc1-c1cnn(C)c1)n(-c1cnn(C)c1)c(=O)n3C [Compound Example 23, 7-Methoxy-3-methyl-1,8-bis-(1-methyl-1H-pyrazol-4-yl)-1,3-dihydroimidazo[4,5-c] quinolin-2-one] | < 200 |
| COc1cc2ncc3c(c2cc1-c1cnn(C)c1)n(-c1c(C)n[nH]c1C)c(=O)n3C [Example 118, 1-(3,5-Dimethyl-1H-pyrazol-4-yl)-7-methoxy-3-methyl-8-(1-methyl-1H-pyrazol-4-yl)-1,3-dihydroimidazo[4,5-c]-quinolin-2-one] | 200 to 1000 |
